Laboratory results as given in paper PMC5746119, “Pharmacologic characterization of SHR8443, a novel dual inhibitor of phosphatidylinositol 3-kinase and mammalian target of rapamycin” (Oncotarget, 2017).
Like-named read-outs stand apart in the source and are kept apart here.

What was measured:
[1] = test system: trastuzumab-resistant BT-474/trastuzumab xenografts; assay: Tumor xenograft growth inhibition; assay type: in vivo, Balb/cA-nude mice
Procedure: (§1) Female, 5–6-wk-old Balb/cA-nude mice were purchased from Shanghai Laboratory Animal Center, Chinese Academy of Sciences (Shanghai, China). […] Tumor volume was calculated as (length × width^2)/2.

[2] = test system: A375/TR (trametinib-resistant) cells; assay: Cell proliferation assay (SRB); assay type: cell-based, human; conditions: for resistance factor (RF): A375/TR versus parental A375
Procedure: (§2) The following human tumor cell lines were obtained from the American Type Culture Collection (Manassas, VA, USA): breast tumor cell lines, MDA-MB-231, MDA-MB-435, MDA-MB-468, BT-474 and MCF7; lung tumor cell lines, A549 and Calu-3; ovarian tumor cell lines, SK-OV-3 and OVCAR3; colon tumor cell lines, SW620 and COLO205; glioma cell line, U-87MG; prostate tumor cell line, PC-3; and melanoma cell line, A375. All cell lines were cultured according to instructions provided by the American Type Culture Collection. The ovarian tumor cell line A2780 was obtained from the National Cancer Institute (Bethesda, MD, USA) and cultured according to the instructions provided. The dabrafenib- and trametinib-resistant A375 cell lines, A375/DR and A375/TR, respectively, were established by culturing parental cells in medium containing gradually increasing concentrations of dabrafenib (0.1–5,000 nM) or trametinib (0.05–50 nM) over the course of 12 months. […] All the cells have been tested and authenticated by Genesky Biotechnologies. Inc. (Shanghai, China) using fluorescent amplified restriction fragment polymorphism (FAFLP) method.
(§3) Tumor cells were seeded in 96-well plates and treated with serial dilutions of drugs alone or as a combination of two drugs. After a 72-h incubation, cell proliferation was evaluated by sulforhodamine B (SRB; Sigma) assay. […] The CI value which defines the interaction between two drugs as synergistic (CI < 0.95), additive (CI = 0.95–1.05) or antagonistic (CI > 1.05), was determined on the basis of the median-effect principle using CalcuSyn software.

[3] = test system: A375/DR (dabrafenib-resistant) cells; assay: Cell proliferation assay (SRB); assay type: cell-based, human; conditions: for resistance factor (RF): A375/DR versus parental A375
Procedure: as §2, §3

A549 cells = assay: Autophagy, LC3 immunoblotting; assay type: cell-based, human; conditions: 48 h
Procedure: (§4) After drug treatment, cells were lysed in sodium dodecyl sulfate (SDS) sample buffer (100 mM Tris-HCl pH 6.8, 2% SDS, 20% glycerol, 1 mM dithiothreitol). Cell lysates containing equal amounts of protein were resolved by SDS-PAGE and transferred to polyvinylidene difluoride membranes. Blots were probed with primary antibodies, and then incubated with the appropriate secondary antibodies (Millipore). Immunoreactive bands were visualized using enhanced chemiluminescence reagents (Millipore).

[4] = test system: MCF7 and MDA-MB-468 cells; assay: Apoptosis by annexin V-FITC/PI staining and FACS; assay type: cell-based, human; conditions: 72 h
Procedure: (§5) Cells were harvested and fixed in ice-cold 70% ethanol at −20°C overnight. Fixed cells were then treated with 50 μg/mL of propidium iodide and RNase A at 37°C for 30 min. The cell cycle distribution was measured using a FACScan flow cytometer (BD Biosciences, San Jose, CA, USA) and analyzed with ModFit LT Mac V3.0 software. Apoptosis was measured using a FITC Annexin V Apoptosis Detection Kit (BD Biosciences) according to the manufacturer's instructions. Fluorescence was acquired with an Accuri C6 Plus instrument (BD Biosciences).

[5] = test system: panel of human tumor cell lines; assay: Cell proliferation assay (SRB), panel of human tumor cell lines; assay type: cell-based; conditions: 72 h
Procedure: as §2, §3

[6] = Pharmacokinetic study in U-87MG tumor-bearing mice; assay type: in vivo, Balb/cA-nude mice; conditions: single oral dose 10 mg/kg; for Cmax: female, Balb/cA-nude, mouse
Procedure: as §1
Pharmacokinetic/pharmacodynamic studies were carried out as described previously. Mice bearing U-87MG tumors received a single oral dose of 10 mg/kg SHR8443 or vehicle, and tumor tissues and blood were collected at different times. Concentrations of SHR8443 in plasma and tissue were determined by HPLC/tandem mass spectrometry. Tumor samples were analyzed by Western blotting. Animal experiments were conducted in accordance with the Institutional Animal Care and Use Committee guidelines of Shanghai Institute of Materia Medica, Chinese Academy of Sciences.

[7] = test system: PI3K/mTOR signaling (AKT, S6, ERK phosphorylation); assay: Western blotting of PI3K/mTOR signaling in tumor cell lines; assay type: cell-based, human
Procedure: as §4

[8] = test system: MCF7, MDA-MB-468, COLO205, and A549 cell lines; assay: Cell cycle distribution by flow cytometry; assay type: cell-based, human; conditions: 24 h treatment
Procedure: as §5

[9] = test system: KRAS mutant A549 xenografts; assay: Tumor xenograft growth inhibition; assay type: in vivo, Balb/cA-nude mice; conditions: 15 mg/kg oral daily
Procedure: as §1

U-87MG xenografts = assay: Tumor xenograft growth inhibition; assay type: in vivo, Balb/cA-nude mice
Procedure: as §1

PC-3 xenografts = assay: Tumor xenograft growth inhibition; assay type: in vivo, Balb/cA-nude mice; conditions: 30 mg/kg oral daily, final treatment day
Procedure: as §1

BT-474 xenografts = assay: Tumor xenograft growth inhibition; assay type: in vivo, Balb/cA-nude mice
Procedure: as §1

[10] = test system: panel of other protein kinases; assay: Panel of other protein kinases; assay type: biochemical; conditions: 1000 nM; data not shown
mTOR = mTOR (Homo sapiens, UniProt P42345); assay: mTOR kinase activity assay (K-LISA mTOR Activity Kit); assay type: biochemical; conditions: means ± SD (n = 3)
Procedure: (§6) PI3K enzyme-linked immunosorbent assays (ELISAs) were performed using the PI3Kinase Activity/Inhibitor Assay Kit (Millipore, Bedford, MA, USA) according to the manufacturer's instructions as described previously. mTOR kinase activity was assayed using the K-LISA mTOR Activity Kit (Calbiochem, Bedford, MA, USA) according to the manufacturer's instructions.

A375 cells = assay: Cell proliferation assay (SRB); assay type: cell-based; conditions: Homo sapiens, A-375, 72 h
Procedure: The following human tumor cell lines were obtained from the American Type Culture Collection (Manassas, VA, USA): breast tumor cell lines, MDA-MB-231, MDA-MB-435, MDA-MB-468, BT-474 and MCF7; lung tumor cell lines, A549 and Calu-3; ovarian tumor cell lines, SK-OV-3 and OVCAR3; colon tumor cell lines, SW620 and COLO205; glioma cell line, U-87MG; prostate tumor cell line, PC-3; and melanoma cell line, A375. All cell lines were cultured according to instructions provided by the American Type Culture Collection. The ovarian tumor cell line A2780 was obtained from the National Cancer Institute (Bethesda, MD, USA) and cultured according to the instructions provided. The dabrafenib- and trametinib-resistant A375 cell lines, A375/DR and A375/TR, respectively, were established by culturing parental cells in medium containing gradually increasing concentrations of dabrafenib (0.1–5,000 nM) or trametinib (0.05–50 nM) over the course of 12 months. […]
as §3

PI3Kβ = PI3Kβ (Homo sapiens, UniProt P42338); assay: PI3K ELISA (PI3Kinase Activity/Inhibitor Assay Kit); assay type: biochemical; conditions: PI3Kβ (p110β); means ± SD (n = 3)
Procedure: as §6

PI3Kδ = PI3Kδ (Homo sapiens, UniProt O00329); assay: as above; assay type: biochemical; conditions: PI3Kδ (p110δ); means ± SD (n = 3)
Procedure: as §6

PI3Kγ = PI3Kγ (Homo sapiens, UniProt P48736); assay: as above; assay type: biochemical; conditions: PI3Kγ (p110γ); means ± SD (n = 3)
Procedure: as §6

PI3Kα = PI3Kα (Homo sapiens, UniProt P42336); assay: as above; assay type: biochemical; conditions: PI3Kα (p110α); means ± SD (n = 3)
Procedure: as §6

[11] = Tolerability (deaths, body weight) in xenograft-bearing mice; assay type: in vivo, Balb/cA-nude mice; conditions: xenograft-bearing mice during the course of treatment
Procedure: as §1

[12] = 30 mg/kg oral daily, final treatment day

Chain of PI3Kα (P42336 whole entry): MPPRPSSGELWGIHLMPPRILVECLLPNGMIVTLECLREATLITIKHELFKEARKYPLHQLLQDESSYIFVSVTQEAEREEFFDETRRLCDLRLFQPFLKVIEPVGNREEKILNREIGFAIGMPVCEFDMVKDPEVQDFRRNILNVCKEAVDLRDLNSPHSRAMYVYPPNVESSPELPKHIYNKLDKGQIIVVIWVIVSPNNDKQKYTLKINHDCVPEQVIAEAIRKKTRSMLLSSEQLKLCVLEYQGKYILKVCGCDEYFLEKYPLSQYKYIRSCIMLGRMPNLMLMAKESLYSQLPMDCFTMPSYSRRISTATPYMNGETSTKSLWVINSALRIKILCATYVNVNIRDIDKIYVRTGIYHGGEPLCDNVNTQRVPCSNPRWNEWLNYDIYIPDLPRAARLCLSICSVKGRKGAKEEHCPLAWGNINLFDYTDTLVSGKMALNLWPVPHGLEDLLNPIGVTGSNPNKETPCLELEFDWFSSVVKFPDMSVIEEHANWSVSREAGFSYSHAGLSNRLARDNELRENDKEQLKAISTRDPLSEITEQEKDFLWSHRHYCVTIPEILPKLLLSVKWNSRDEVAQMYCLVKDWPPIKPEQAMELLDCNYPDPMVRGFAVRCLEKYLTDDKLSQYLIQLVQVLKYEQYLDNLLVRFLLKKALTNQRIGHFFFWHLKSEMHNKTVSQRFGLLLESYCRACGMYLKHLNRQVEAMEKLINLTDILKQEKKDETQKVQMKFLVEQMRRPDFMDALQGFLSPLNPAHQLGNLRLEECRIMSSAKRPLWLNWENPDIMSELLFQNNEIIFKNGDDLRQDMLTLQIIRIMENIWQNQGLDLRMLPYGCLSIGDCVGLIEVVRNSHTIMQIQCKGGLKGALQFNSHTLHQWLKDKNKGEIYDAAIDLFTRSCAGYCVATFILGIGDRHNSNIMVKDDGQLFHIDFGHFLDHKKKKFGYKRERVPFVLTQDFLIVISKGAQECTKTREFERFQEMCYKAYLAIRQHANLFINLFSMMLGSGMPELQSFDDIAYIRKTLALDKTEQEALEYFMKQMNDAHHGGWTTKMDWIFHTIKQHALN
Chain of PI3Kα (P27986 whole entry partner): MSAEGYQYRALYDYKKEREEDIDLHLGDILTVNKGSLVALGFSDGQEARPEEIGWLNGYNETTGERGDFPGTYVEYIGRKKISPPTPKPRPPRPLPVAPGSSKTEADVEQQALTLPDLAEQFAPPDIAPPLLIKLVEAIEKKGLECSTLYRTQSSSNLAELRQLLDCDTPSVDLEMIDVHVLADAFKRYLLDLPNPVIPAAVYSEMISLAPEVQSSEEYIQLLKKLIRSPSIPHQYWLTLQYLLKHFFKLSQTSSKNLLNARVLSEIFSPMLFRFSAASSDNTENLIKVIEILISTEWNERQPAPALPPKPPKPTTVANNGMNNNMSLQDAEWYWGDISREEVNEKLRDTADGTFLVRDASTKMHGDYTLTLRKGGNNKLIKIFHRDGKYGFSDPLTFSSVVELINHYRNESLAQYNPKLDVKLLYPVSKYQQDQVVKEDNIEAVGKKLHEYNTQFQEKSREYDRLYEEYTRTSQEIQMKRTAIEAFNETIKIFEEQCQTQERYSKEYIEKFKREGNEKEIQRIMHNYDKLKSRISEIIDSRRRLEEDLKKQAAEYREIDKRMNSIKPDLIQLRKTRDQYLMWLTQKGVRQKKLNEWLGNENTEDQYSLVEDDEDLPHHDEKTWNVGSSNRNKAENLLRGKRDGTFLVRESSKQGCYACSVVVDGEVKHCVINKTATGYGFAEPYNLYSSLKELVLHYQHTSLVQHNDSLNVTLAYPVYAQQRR
Chain of PI3Kγ (P48736 whole entry): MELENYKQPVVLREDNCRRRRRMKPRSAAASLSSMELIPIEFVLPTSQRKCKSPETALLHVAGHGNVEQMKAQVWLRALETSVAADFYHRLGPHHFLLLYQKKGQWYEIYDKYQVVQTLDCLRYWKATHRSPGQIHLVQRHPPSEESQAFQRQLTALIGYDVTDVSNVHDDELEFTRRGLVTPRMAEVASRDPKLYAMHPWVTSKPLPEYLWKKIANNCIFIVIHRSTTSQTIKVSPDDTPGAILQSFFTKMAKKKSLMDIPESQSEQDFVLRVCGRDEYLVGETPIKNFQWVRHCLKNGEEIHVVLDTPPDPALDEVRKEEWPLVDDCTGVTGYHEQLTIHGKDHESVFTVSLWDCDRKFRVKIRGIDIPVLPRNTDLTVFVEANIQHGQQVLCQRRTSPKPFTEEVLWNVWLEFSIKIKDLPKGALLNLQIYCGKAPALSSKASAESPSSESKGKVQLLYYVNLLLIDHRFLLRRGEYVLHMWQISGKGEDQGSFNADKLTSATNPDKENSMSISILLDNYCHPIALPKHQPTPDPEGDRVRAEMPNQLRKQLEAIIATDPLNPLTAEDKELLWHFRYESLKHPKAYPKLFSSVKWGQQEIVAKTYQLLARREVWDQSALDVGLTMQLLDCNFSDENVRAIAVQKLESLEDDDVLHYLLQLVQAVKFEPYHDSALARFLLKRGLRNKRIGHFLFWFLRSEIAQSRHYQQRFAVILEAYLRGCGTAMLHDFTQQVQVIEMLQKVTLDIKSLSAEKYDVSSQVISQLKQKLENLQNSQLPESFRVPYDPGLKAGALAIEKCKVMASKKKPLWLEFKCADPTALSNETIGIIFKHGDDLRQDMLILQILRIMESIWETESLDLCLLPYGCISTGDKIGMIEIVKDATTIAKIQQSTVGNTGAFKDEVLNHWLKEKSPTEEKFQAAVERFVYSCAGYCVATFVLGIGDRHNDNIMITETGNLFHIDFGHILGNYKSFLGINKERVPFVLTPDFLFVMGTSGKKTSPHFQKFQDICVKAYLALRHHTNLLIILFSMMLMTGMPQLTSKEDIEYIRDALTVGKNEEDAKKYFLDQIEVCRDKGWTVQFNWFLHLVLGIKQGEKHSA
Chain of PI3Kδ (O00329 whole entry): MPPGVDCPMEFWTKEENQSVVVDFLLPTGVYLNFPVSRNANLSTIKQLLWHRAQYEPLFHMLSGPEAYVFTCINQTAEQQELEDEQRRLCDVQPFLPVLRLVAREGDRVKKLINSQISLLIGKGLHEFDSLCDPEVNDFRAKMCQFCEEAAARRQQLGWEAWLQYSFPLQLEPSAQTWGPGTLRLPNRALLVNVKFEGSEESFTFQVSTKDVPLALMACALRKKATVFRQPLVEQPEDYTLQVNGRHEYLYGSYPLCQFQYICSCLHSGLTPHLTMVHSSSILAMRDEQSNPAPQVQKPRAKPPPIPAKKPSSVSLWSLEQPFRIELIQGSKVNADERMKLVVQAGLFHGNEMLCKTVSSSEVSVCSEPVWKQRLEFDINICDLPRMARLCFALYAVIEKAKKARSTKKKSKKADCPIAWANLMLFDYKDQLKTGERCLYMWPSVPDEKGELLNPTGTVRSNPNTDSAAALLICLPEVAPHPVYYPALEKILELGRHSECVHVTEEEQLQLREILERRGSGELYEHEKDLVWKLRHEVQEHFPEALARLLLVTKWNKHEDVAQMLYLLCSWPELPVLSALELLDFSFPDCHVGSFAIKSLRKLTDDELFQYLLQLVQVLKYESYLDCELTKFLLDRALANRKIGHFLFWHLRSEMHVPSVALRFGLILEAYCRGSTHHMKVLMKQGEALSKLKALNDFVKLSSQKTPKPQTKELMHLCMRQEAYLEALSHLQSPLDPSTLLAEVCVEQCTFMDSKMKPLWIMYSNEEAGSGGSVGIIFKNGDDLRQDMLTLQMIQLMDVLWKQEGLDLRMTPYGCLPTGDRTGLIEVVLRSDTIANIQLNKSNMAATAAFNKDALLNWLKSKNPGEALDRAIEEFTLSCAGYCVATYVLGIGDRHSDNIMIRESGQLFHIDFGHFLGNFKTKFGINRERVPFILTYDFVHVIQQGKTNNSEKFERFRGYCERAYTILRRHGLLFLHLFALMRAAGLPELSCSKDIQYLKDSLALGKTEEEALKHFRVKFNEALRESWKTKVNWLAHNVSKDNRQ
Chain of PI3Kδ (P27986 whole entry partner): as the sequence (P27986 whole entry partner) above
Chain of PI3Kβ (P42338 whole entry): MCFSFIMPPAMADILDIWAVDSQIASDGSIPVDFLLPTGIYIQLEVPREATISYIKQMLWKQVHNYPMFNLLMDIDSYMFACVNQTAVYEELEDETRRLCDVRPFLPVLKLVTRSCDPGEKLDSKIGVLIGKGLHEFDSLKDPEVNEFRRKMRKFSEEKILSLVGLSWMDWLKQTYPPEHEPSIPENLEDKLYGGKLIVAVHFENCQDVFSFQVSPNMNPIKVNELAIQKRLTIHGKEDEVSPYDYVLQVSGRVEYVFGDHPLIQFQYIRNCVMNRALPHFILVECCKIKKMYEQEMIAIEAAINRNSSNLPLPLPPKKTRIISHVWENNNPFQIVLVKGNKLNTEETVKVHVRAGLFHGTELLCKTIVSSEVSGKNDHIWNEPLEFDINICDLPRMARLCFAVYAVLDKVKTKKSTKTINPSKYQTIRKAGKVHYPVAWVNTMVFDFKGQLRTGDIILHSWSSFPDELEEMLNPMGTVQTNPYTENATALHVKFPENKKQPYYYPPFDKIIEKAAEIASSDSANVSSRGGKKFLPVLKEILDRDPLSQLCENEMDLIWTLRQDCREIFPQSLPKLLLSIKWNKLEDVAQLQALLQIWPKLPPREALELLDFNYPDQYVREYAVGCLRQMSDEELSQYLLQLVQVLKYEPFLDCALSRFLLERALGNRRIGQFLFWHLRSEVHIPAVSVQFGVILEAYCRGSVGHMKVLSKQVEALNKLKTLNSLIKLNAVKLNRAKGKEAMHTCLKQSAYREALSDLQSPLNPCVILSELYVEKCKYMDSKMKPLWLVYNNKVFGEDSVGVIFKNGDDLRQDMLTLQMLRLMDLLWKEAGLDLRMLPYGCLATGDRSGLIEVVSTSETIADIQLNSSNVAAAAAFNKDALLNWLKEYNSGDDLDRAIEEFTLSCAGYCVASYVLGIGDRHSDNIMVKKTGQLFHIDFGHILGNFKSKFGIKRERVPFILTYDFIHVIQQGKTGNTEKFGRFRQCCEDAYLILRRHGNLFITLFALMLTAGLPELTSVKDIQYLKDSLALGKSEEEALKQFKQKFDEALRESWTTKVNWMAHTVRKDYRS
Chain of PI3Kβ (P27986 whole entry partner): as the sequence (P27986 whole entry partner) above

## Cn1c(=O)n(-c2ccc(C(C)(C)C#N)cc2)c2c3cc(-c4cnc5ccccc5c4)ccc3ncc21 [BEZ235, reference compound]
[1]; 60 mg/kg oral daily
  tumor growth inhibition (TGI): 39%

## CC(C)(C)c1nc(-c2cccc(NS(=O)(=O)c3c(F)cccc3F)c2F)c(-c2ccnc(N)n2)s1 [dabrafenib]
[2]
  resistance factor (RF): 61.0
[3]
  resistance factor (RF): 839.2

## CC(=O)Nc1cccc(-n2c(=O)n(C3CC3)c(=O)c3c(Nc4ccc(I)cc4F)n(C)c(=O)c(C)c32)c1 [trametinib]
[2]
  resistance factor (RF): 39.8
[3]
  resistance factor (RF): 45.1

## CNC(=O)Nc1ccc(-c2ccc3ncc4c(c3c2)n(-c2cccc(C(F)(F)F)c2)c(=O)n4C)cn1 [SHR8443, 1-methyl-3-(5-(3-methyl-2-oxo-1-(3-(trifluoromethyl)phenyl)-2,3-dihydro-1H–imidazo [4,5-c]quinolin-8-yl)pyridin-2-yl) urea]
A549 cells
  LC3-II production (autophagy): increased the production of LC3-II in a concentration-dependent manner
[4]
  necrotic/apoptotic cell death: concentration-dependent increase
[5]; read-out: IC50 values, proliferation, range over all tested tumor cells
  IC50: 2.9 to 13.9 nM
[5]; read-out: average (mean) IC50, proliferation, all tested tumor cells
  IC50: 7.5 nM
[5]; read-out: mean IC50 in KRAS/BRAF mutant tumor cells
  IC50: 7.3 nM
[6]; plasma, read-out: Cmax in plasma
  Cmax: 735 ng/mL
[6]; tumor tissue, read-out: Cmax in tumor tissue
  Cmax: 181 ng/g
[6]
  time of Cmax (plasma and tumor tissue): 8 h
[7]; COLO205 (BRAF mutant), A549 and SW620 (KRAS mutant) cells, 3 h
  phosphorylation of AKT and S6: significantly inhibited
[7]; COLO205, A549, SW620 cells
  level of phosphorylated ERK (pERK): No change
[7]; MCF7, MDA-MB-468, BT-474 breast cancer cells, 3 h
  AKT and S6 phosphorylation: inhibited
[7]; MDA-MB-468 cells, 100 nM for 2 h then drug-free medium
  reversibility of inhibitory activity after removal from medium: reversible
[7]; U-87MG cells, 100 nM
  duration of inhibition of AKT, S6K and S6 phosphorylation: at least 48 h
[8]
  cell cycle effect: concentration-dependent G1-phase cell-cycle arrest
[9]
  tumor growth inhibition (TGI): 86%
U-87MG xenografts; 30 mg/kg
  tumor regression: one of six tumors
U-87MG xenografts; [12]
  tumor growth inhibition (TGI): 95%
PC-3 xenografts
  tumor growth inhibition (TGI): 75%
BT-474 xenografts; 30 mg/kg
  tumor regression: one of six tumors
BT-474 xenografts; [12]
  tumor growth inhibition (TGI): 87%
[1]; 30 mg/kg oral daily
  tumor growth inhibition (TGI): 79%
[10]
  inhibitory activity against a panel of other protein kinases: little inhibitory activity
[2]; Homo sapiens, A-375, A375/TR cells, 72 h, SRB assay
  IC50: 4.9 nM
[3]; Homo sapiens, A-375, A375/DR cells, 72 h, SRB assay
  IC50: 3.4 nM
mTOR
  IC50: 7.8 ± 1.1 nM
A375 cells
  IC50: 4.1 nM
PI3Kβ
  IC50: 15.8 ± 3.8 nM
PI3Kδ
  IC50: 0.7 ± 0.2 nM
PI3Kγ
  IC50: 0.2 ± 0.2 nM
PI3Kα
  IC50: 0.1 nM
[11]
  tolerability (drug-related deaths, body weight loss): well tolerated
